“And” between values parts separate entries of the source, which are not always exact repeats. Equal values may be shown once.
Test: xn = mol fraction of the nth substance listed

CC(CC(C)(C)C)CP(=O)([O-])CC(C)CC(C)(C)C.CCCCCCCCCCCCCC[P+](CCCCCC)(CCCCCC)CCCCCC + O
100 kPa
Conditions | viscosity [mPa·s]
298.15 K, x1 = 0.1299 | 139
323.15 K, x1 = 0.7943 | 264

CCCCCCCC(=O)[O-].CCCCCC[NH+](CCCCCC)CCCCCC + O
298.15 K, 101 kPa
Conditions | viscosity
x1 = 0.3915 | 15.08 mPa·s and 15.76 mPa·s
x1 = 0.7748 | 20.5 mPa·s and 21.52 mPa·s

CCCCCCCCCC[n+]1ccn(C)c1.[Br-] + O
electrical conductivity [S/m], 101 kPa
Conditions | 296 K | 301 K | 306 K | 311 K | 316 K
x1 = 0.0001622 | – | – | – | – | 0.0606
x1 = 0.0002342 | – | – | – | – | 0.0892
x1 = 0.0002522 | 0.0652 | – | – | 0.0827 | –
x1 = 0.0003423 | 0.0864 | – | 0.1 | 0.107 | 0.117
x1 = 0.0003603 | – | 0.0919 | – | – | –
x1 = 0.0004503 | 0.102 | 0.11 | 0.118 | 0.131 | 0.14
x1 = 0.0005763 | 0.125 | 0.134 | 0.141 | 0.155 | 0.168
x1 = 0.0007023 | 0.141 | 0.152 | 0.162 | 0.175 | 0.191
x1 = 0.0008462 | – | 0.172 | – | – | 0.223
x1 = 0.0008642 | 0.163 | – | 0.188 | 0.202 | –
x1 = 0.001026 | 0.176 | 0.186 | 0.205 | 0.221 | 0.248
x1 = 0.001206 | 0.195 | 0.204 | 0.223 | 0.243 | 0.272
x1 = 0.001422 | 0.205 | 0.22 | 0.237 | 0.254 | 0.291
x1 = 0.001673 | 0.216 | 0.23 | 0.257 | 0.271 | 0.309
x1 = 0.00196 | 0.234 | 0.24 | 0.263 | 0.28 | 0.323
x1 = 0.002301 | – | – | 0.274 | 0.293 | 0.34
x1 = 0.002319 | – | 0.251 | – | – | –

298.15 K, 100 kPa, frequency 5e-05 MHz
Conditions | electrical conductivity [S/m]
x1 = 0.0003459 | 0.175
x1 = 0.0003945 | 0.199
x1 = 0.0004629 | 0.235
x1 = 0.0004917 | 0.249
x1 = 0.0005259 | 0.265
x1 = 0.0005781 | 0.289
x1 = 0.0006231 | 0.31
x1 = 0.0006537 | 0.325
x1 = 0.0006861 | 0.34
x1 = 0.0007311 | 0.36
x1 = 0.0007563 | 0.37
x1 = 0.0007922 | 0.374
x1 = 0.0009038 | 0.387
x1 = 0.000938 | 0.391
x1 = 0.0009775 | 0.395
x1 = 0.001044 | 0.403
x1 = 0.001082 | 0.407
x1 = 0.001118 | 0.41
x1 = 0.001152 | 0.414
x1 = 0.001206 | 0.422

CCCC[P+](C)(CCCC)CCCC.COS(=O)(=O)[O-] + O
Conditions | viscosity [mPa·s]
298.15 K, 100 kPa, x1 = 0.004192 | 1.135

CCCC[n+]1ccn(C)c1.O=S(=O)([N-]S(=O)(=O)C(F)(F)F)C(F)(F)F + O
Conditions | electrical conductivity [S/m] | viscosity [mPa·s]
298 K, 101 kPa, x2 = 0 | – | 50.4
298 K, 101 kPa, x2 = 0.0227 | 0.427 | –
298 K, 101 kPa, x2 = 0.0272 | 0.442 | –
298 K, 101 kPa, x2 = 0.0915 | 0.472 | –
298 K, 101 kPa, x2 = 0.1024 | 0.498 | –
333.15 K, 100 kPa, x2 = 0.257 | – | 10.68
343.15 K, 100 kPa, x2 = 0.257 | – | 8.479
353.15 K, 100 kPa, x2 = 0.257 | – | 6.903

CCn1cc[n+](C)c1.COCCOCCOS(=O)(=O)[O-] + O
101 kPa
Conditions | electrical conductivity [S/m]
298.2 K, x2 = 0.4 | 0.3
298.2 K, x2 = 0.6 | 0.51
313.2 K, x2 = 0.2 | 0.46
313.2 K, x2 = 0.8 | 1.63
328.2 K, x2 = 0.4 | 0.92
338.2 K, x2 = 0.2 | 1.05
338.2 K, x2 = 0.6 | 1.77
338.2 K, x2 = 0.8 | 2.97
343.2 K, x2 = 0.8 | 3.28
348.2 K, x2 = 0.2 | 1.36
348.2 K, x2 = 0.4 | 1.51
353.2 K, x2 = 0.6 | 2.39
353.2 K, x2 = 0.8 | 3.93

COC[n+]1ccccc1.O=S(=O)([N-]S(=O)(=O)C(F)(F)F)C(F)(F)F + O
101 kPa, x1 = 0.8483
Conditions | electrical conductivity [S/m] | viscosity [mPa·s]
298.1 K | – | 37.4
298.15 K | 0.608 | –
303 K | – | 30.6
333 K | – | 12

CCCC[n+]1ccn(C)c1.F[P-](F)(F)(F)(F)F + O=C1CCCC1
Conditions | viscosity [mPa·s]
298.15 K, 101.3 kPa, x2 = 0 | 270

CCCC[n+]1ccn(C)c1.O=S(=O)([N-]S(=O)(=O)C(F)(F)F)C(F)(F)F + O=C1CCCCCO1
100 kPa, frequency 0.01 MHz, x1 = 1
Conditions | electrical conductivity [S/m]
293.15 K | 0.337
298.15 K | 0.4
303.15 K | 0.472
308.15 K | 0.552
313.15 K | 0.64
318.15 K | 0.733
323.15 K | 0.835

CCCC[n+]1ccn(C)c1.O=S(=O)([N-]S(=O)(=O)C(F)(F)F)C(F)(F)F + O=C1CCCCO1
100 kPa, frequency 0.01 MHz, x1 = 1
Conditions | electrical conductivity [S/m]
298.15 K | 0.4
318.15 K | 0.733

CCCC[n+]1ccn(C)c1.O=S(=O)([N-]S(=O)(=O)C(F)(F)F)C(F)(F)F + O=C1CCCO1
100 kPa, x2 = 0
Conditions | electrical conductivity [S/m] | viscosity [mPa·s]
298.15 K | 0.4 | 50
303.15 K | 0.472 | 41.24

Reference: the CheMixHub ionic liquid set
